Experimental data from ChEMBL document CHEMBL5050827, “ATF6 inhibitors and uses thereof” (2020).

Experiments:
[1] = Inhibition of ATF6 activity in human U2OS cells in presence of ER stress inducer thapsigargin (Tg) measured by TRE-luciferase reporter assay; type: cell-based
[2] = Clearance in Balb/C mouse plasma at 10 mg/kg, po by LC-MS analysis; type: ADME, organism-based
U2OS = assay: Inhibition of ATF6 activity in human U2OS cells at 1 uM in presence of ER stress inducer thapsigargin (Tg) measured by TRE-luciferase reporter assay relative to control; type: cell-based
[3] = Half-life in Balb/C mouse plasma at 10 mg/kg, po by LC-MS analysis; type: ADME, organism-based
[4] = AUC (infinity) in Balb/C mouse plasma at 10 mg/kg, po by LC-MS analysis; type: ADME, organism-based; design: route oral, time infinity, dose 10 mg/kg
[5] = AUC (last) in Balb/C mouse plasma at 10 mg/kg, po by LC-MS analysis; type: ADME, organism-based; design: time 0 - last, route oral, dose 10 mg/kg

SMILES	IC50 [1]	inhibition (U2OS)	other results
CC(c1ccc(C(F)(F)F)cc1C(F)(F)F)n1cc(NC(=O)c2cc(-c3cccs3)on2)cn1 (stereo not given)	in the range around 1000 nM		
O=C(Nc1cnn(Cc2ccc(C(F)(F)F)cc2C(F)(F)F)c1)c1cc(-c2ccccn2)on1			CL/F [2]: 16.2 mL/min/kg
Cc1ccc(-c2cc(C(=O)Nc3cnn(Cc4ccc(C(F)(F)F)cc4C(F)(F)F)c3)no2)o1	in the range around 1000 nM		
O=C(Nc1cnn(Cc2ccc(C(F)(F)F)cc2)c1)c1cc(-c2ccco2)on1	> 10000 nM	< 25%	
C[C@@H](c1ccc(C(F)(F)F)cc1C(F)(F)F)n1cc(NC(=O)c2coc(-c3ccccn3)n2)cn1	> 10000 nM	< 25%	
C[C@@H](c1ccc(C(F)(F)F)cc1C(F)(F)F)n1cc(NC(=O)c2cc(-c3ccccn3)on2)cn1		> 50%	CL/F [2]: 5.17 mL/min/kg
C[C@H](c1ccc(C(F)(F)F)cc1C(F)(F)F)n1cc(NC(=O)c2nnc(-c3ccncn3)s2)cn1		25%	
Cc1cccc(-c2cc(C(=O)Nc3cnn([C@H](C)c4ccc(C(F)(F)F)cc4C(F)(F)F)c3)no2)n1		25%	
C[C@H](c1ccc(C(F)(F)F)cc1C(F)(F)F)n1cc(NC(=O)c2cc(-c3ccccn3)no2)cn1			CL/F [2]: 3.68 mL/min/kg
Cc1cccc(-c2cc(C(=O)Nc3cnn(Cc4ccc(C(F)(F)F)cc4C(F)(F)F)c3)no2)n1		25%	
CC(c1ccc(C(F)(F)F)cc1C(F)(F)F)n1cc(NC(=O)c2cnc(-c3ccccn3)s2)cn1 (stereo not given)	in the range around 1000 nM		
O=C(Nc1cnn(C2CCc3ccccc32)c1)c1nnc(-c2ccco2)o1 (stereo not given)	> 10000 nM	< 25%	
Cc1c(NC(=O)c2cc(-c3ccccn3)on2)cnn1Cc1ccc(C(F)(F)F)cc1C(F)(F)F	in the range around 1000 nM	25%	
O=C(Nc1cnn(Cc2ccccc2)c1)c1cc(-c2ccco2)on1	> 10000 nM	< 25%	
C[C@@H](c1ccc(C(F)(F)F)cc1C(F)(F)F)n1cc(NC(=O)c2cc(-c3ccco3)on2)cn1			CL/F [2]: 267 mL/min/kg
C[C@@H](c1ccc(C(F)(F)F)cc1C(F)(F)F)n1cc(NC(=O)c2nnc(-c3ccccn3)s2)cn1	in the range around 1000 nM	< 25%	
C[C@H](c1ccc(C(F)(F)F)cc1C(F)(F)F)n1cc(NC(=O)c2cc(-c3cnccn3)on2)cn1			CL/F [2]: 1.56 mL/min/kg

SMILES	IC50 [1]	inhibition (U2OS)	other results
O=C(Nc1cnn(Cc2ccc(C(F)(F)F)cc2C(F)(F)F)c1)c1cc(-c2ccco2)on1	< 1000 nM	> 50%	half-life [3]: 2.49 h; CL/F [2]: 3850 mL/min/kg; AUC(0-inf) [4]: 43.3 ng·h/mL; AUC(0-t) [5]: 39.1 ng·h/mL
C[C@@H](c1ccc(C(F)(F)F)cc1C(F)(F)F)n1cc(NC(=O)c2nnc(-c3ccco3)s2)cn1		25%	
CN(C(=O)c1cc(-c2ccccn2)on1)c1cnn(Cc2ccc(C(F)(F)F)cc2C(F)(F)F)c1	in the range around 1000 nM	25%	
Cc1c(NC(=O)c2cc(-c3ccccn3)on2)cnn1[C@H](C)c1ccc(C(F)(F)F)cc1C(F)(F)F	in the range around 1000 nM	25%	
C[C@@H](c1ccc(C(F)(F)F)cc1C(F)(F)F)n1cc(NC(=O)c2cnc(-c3ccccn3)o2)cn1	> 10000 nM	< 25%	
O=C(Nc1cnn(Cc2ccc(C(F)(F)F)cc2C(F)(F)F)c1)c1cnc(-c2ccccn2)s1	in the range around 1000 nM		
Cc1nn([C@H](C)c2ccc(C(F)(F)F)cc2C(F)(F)F)cc1NC(=O)c1cc(-c2ccccn2)on1		25%	
C[C@H](c1ccc(C(F)(F)F)cc1C(F)(F)F)n1cc(NC(=O)c2cc(-c3ccco3)on2)cn1		< 25%	
C[C@H](c1ccc(F)cc1C(F)(F)F)n1cc(NC(=O)c2cc(-c3ccccn3)on2)cn1	in the range around 1000 nM	25%	
O=C(Nc1cnn(Cc2ccc(C(F)(F)F)cc2C(F)(F)F)c1)c1cc(-c2ccncc2)on1	in the range around 1000 nM		
C[C@H](c1ccc(C(F)(F)F)cc1C(F)(F)F)n1cc(NC(=O)c2cnc(-c3ccccn3)s2)cn1	in the range around 1000 nM	25%	
C[C@H](c1ccc(C(F)(F)F)cc1C(F)(F)F)n1cc(NC(=O)c2nnc(-c3ccccn3)s2)cn1			CL/F [2]: 2.68 mL/min/kg
CC(c1ccc(C(F)(F)F)cc1C(F)(F)F)n1cc(NC(=O)c2cc(-c3ccccn3)nn2C)cn1 (stereo not given)		25%	
C[C@H](c1ccc(C(F)(F)F)cc1C(F)(F)F)n1cc(NC(=O)c2cn(-c3ccccn3)nn2)cn1		25%	
C[C@H](c1ccc(C(F)(F)F)cc1C(F)(F)F)n1cc(NC(=O)c2cc(-c3ccccn3)on2)cn1		< 25%	
O=C(Nc1cnn(Cc2ccc(C(F)(F)F)cc2C(F)(F)F)c1)c1cc(-c2cccs2)on1		25%	
